The target in experiment [1] is PTPN11-E76K mutant enzyme (Homo sapiens (Human), UniProt Q06124, E76K). Nature of the experiment: PTPN11 enzymatic assay (DiFMUP phosphatase activity). Format: biochemical. The following applies: full length PTPN11-E76K mutant, 250 pM enzyme, DiFMUP 50 μM substrate. On the procedure:
Reaction was initiated by addition of DiFMUP (50 μM) at room temperature in 384-well black plate with a final reaction volume of 20 uL in assay buffer. After 1 hour, DiFMUP fluorescence signal was measured (Ex:340/Em:460) using Envision plate reader. Dose-response curves were analyzed using IC50 regression curve fitting (GeneData Screener). Curves were normalized to a high controls without inhibitor, and low controls without enzyme.

A further experiment concerns KYSE-520 cells. Nature of the experiment: pERK AlphaScreen. In kind it is cell-based. The following applies: Homo sapiens. On the procedure: KYSE-520 cells (10 k cells/well) were grown in 384-well plate in 20 uL of medium (RPMI-1640, without phenol red, containing 10% FBS) at 37° C. with 5% CO2 overnight. DMSO (control) or increasing concentrations of compounds were diluted in medium, added to the 384-well plate (5 uL/well, final DMSO concentration of 1%), and cells were then incubated with compounds for 2 hr. Phospho-ERK levels were measured using phospho-ERK1/2 AlphaScreen SureFire (PerkinElmer, TGRESB10K) following manufacturer's recommendations. Dose-response curves were analyzed using IC50 regression curve fitting (GeneData Screener). Curves were normalized to a high control without inhibitor (DMSO only), and low control (1 μM selumetinib).
(In general: Alpha assays give light when donor and acceptor beads are brought close together.)

Where [2] appears, read: KYSE-520 cells, 2 hr incubation, phospho-ERK1/2 AlphaScreen SureFire, read-out: pERK Avg IC50.
Where [3] appears, read: KYSE-520, 2 h, read-out: pERK Avg IC50 (nM).

The results in this text go back to patent US10954243B2, “Substituted heterocyclic inhibitors of PTPN11” (NAVIRE PHARMA, INC., priority 2018, dated 2021).

Where two headings read alike, the source gives them in different places.

Sequence of PTPN11-E76K mutant enzyme (Q06124 whole entry E76K): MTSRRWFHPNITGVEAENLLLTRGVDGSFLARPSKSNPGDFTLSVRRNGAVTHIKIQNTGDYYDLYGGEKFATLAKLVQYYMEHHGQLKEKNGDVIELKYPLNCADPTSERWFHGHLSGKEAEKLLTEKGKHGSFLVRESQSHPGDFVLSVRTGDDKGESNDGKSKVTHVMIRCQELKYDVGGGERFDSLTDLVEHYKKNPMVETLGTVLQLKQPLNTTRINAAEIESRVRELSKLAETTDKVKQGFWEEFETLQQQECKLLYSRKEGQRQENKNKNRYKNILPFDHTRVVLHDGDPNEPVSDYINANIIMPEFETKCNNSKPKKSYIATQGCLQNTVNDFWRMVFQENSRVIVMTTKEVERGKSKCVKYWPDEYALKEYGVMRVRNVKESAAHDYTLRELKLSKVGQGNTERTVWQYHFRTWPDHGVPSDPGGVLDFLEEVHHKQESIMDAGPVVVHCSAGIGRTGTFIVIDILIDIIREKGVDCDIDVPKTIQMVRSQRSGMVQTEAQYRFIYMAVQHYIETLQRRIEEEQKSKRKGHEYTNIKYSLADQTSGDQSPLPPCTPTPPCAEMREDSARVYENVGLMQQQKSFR

By IC50 is commonly meant the concentration that inhibits the measured activity by half. `Cc1nc2c(-c3cccc(Cl)c3Cl)n[nH]c2nc1N1CCC(C)(N)CC1` [Example 1, 1-(3-(2,3-dichlorophenyl)-5-methyl-1H-pyrazolo[3,4-b]pyrazin-6-yl)-4-methylpiperidin-4-amine]: the half-maximal inhibitory concentration (IC50) in experiment [1] turned out to be 68 nM; in the experiment on KYSE-520 cells (setting [2]), 93 nM.

With `CC1(N)CCN(c2nc3[nH]nc(-c4cccc(Cl)c4Cl)c3nc2Br)CC1` [Example 2, 1-(5-bromo-3-(2,3-dichlorophenyl)-1H-pyrazolo[3,4-b]pyrazin-6-yl)-4-methylpiperidin-4-amine], the IC50 stood at 317 nM in experiment [1] and 580 nM in the experiment on KYSE-520 cells (setting [2]).

For `CC1(N)CCN(c2nc3[nH]nc(-c4cccc(Cl)c4Cl)c3nc2O)CC1` [Example 3, 6-(4-amino-4-methylpiperidin-1-yl)-3-(2,3-dichlorophenyl)-1H-pyrazolo[3,4-b]pyrazin-5-ol], the IC50 was determined as 960 nM in experiment [1] and 2000 nM in the experiment with KYSE-520 cells (setting [2]).

Take `CC1(N)CCN(c2nc3[nH]nc(-c4cccc(Cl)c4Cl)c3nc2C#N)CC1` [Example 4, 6-(4-amino-4-methylpiperidin-1-yl)-3-(2,3-dichlorophenyl)-1H-pyrazolo[3,4-b]pyrazine-5-carbonitrile]: the half-inhibitory concentration (IC50) in experiment [1] turned out to be 465 nM. Regarding `CC1(N)CCN(c2nc3[nH]nc(-c4cccc(Cl)c4Cl)c3nc2-c2cc[nH]n2)CC1` [Example 5, 1-(3-(2,3-dichlorophenyl)-5-(1H-pyrazol-3-yl)-1H-pyrazolo[3,4-b]pyrazin-6-yl)-4-methylpiperidin-4-amine], the IC50 in experiment [1] amounted to 397 nM; in the experiment on KYSE-520 cells (setting [2]), 1970 nM.

In the case of `COc1nc2c(-c3cccc(Cl)c3Cl)n[nH]c2nc1N1CCC(C)(N)CC1` [Example 6, 1-(3-(2,3-dichlorophenyl)-5-methoxy-1H-pyrazolo[3,4-b]pyrazin-6-yl)-4-methylpiperidin-4-amine bis(2,2,2-trifluoroacetate)], the IC50 was 950 nM in experiment [1] and 3820 nM in the experiment with KYSE-520 cells (setting [3]). Turning to `CC1(N)CCN(c2nc3[nH]nc(-c4cccc(Cl)c4Cl)c3nc2CO)CC1` [Example 7, (6-(4-amino-4-methylpiperidin-1-yl)-3-(2,3-dichlorophenyl)-1H-pyrazolo[3,4-b]pyrazin-5-yl)methanol], the values for the IC50 (in experiment [1]; in the experiment with KYSE-520 cells (setting [2])) were 19 nM and 97 nM, respectively.

Turning to `CC1(N)CCN(c2nc3[nH]nc(-c4cccc(Cl)c4Cl)c3nc2C(N)=O)CC1` [Example 8, 6-(4-amino-4-methylpiperidin-1-yl)-3-(2,3-dichlorophenyl)-1H-pyrazolo[3,4-b]pyrazine-5-carboxamide], the IC50 in experiment [1] is 90 nM. On to `CC1(N)CCN(c2nc3[nH]nc(-c4cccc(Cl)c4Cl)c3nc2C=O)CC1` [Example 9, 6-(4-amino-4-methylpiperidin-1-yl)-3-(2,3-dichlorophenyl)-1H-pyrazolo[3,4-b]pyrazine-5-carbaldehyde], for which the results for the IC50 (in experiment [1]; with KYSE-520 cells (setting [2])) were 190 nM and 647 nM, respectively. The matching figures for `CC1(N)CCN(c2nc3[nH]nc(-c4cccc(Cl)c4Cl)c3nc2Cl)CC1` [Example 10, 1-(5-chloro-3-(2,3-dichlorophenyl)-1H-pyrazolo[3,4-b]pyrazin-6-yl)-4-methylpiperidin-4-amine]: 277 nM and 502 nM. Compound `CNc1nccc(-c2n[nH]c3nc(N4CCC(C)(N)CC4)c(CO)nc23)c1Cl` [Example 11, (6-(4-amino-4-methylpiperidin-1-yl)-3-(3-chloro-2-(methylamino)pyridin-4-yl)-1H-pyrazolo[3,4-b]pyrazin-5-yl)methanol] registered an IC50 in experiment [1] of 17 nM. `CC(O)c1nc2c(-c3cccc(Cl)c3Cl)n[nH]c2nc1N1CCC(C)(N)CC1` (stereo not drawn) [Example 12, 1-(6-(4-amino-4-methylpiperidin-1-yl)-3-(2,3-dichlorophenyl)-1H-pyrazolo[3,4-b]pyrazin-5-yl)ethanol]: the 50% inhibitory concentration (IC50) is 372 nM in experiment [1] and 326 nM in the experiment with KYSE-520 cells (setting [2]).

Take `CC1(N)CCN(c2nc3[nH]nc(-c4cccc(Cl)c4Cl)c3nc2C(=O)NO)CC1` [Example 13, 6-(4-Amino-4-methylpiperidin-1-yl)-3-(2,3-dichlorophenyl)-N-hydroxy-1H-pyrazolo[3,4-b]pyrazine-5-carboxamide]: the results for the IC50 (in experiment [1]; in the experiment with KYSE-520 cells (setting [2])) were 224 nM and 704 nM, respectively. The matching figures for `CC1(N)CCN(c2nc3[nH]nc(-c4cccc(Cl)c4Cl)c3nc2C(F)F)CC1` [Example 14, 1-(3-(2,3-dichlorophenyl)-5-(difluoromethyl)-1H-pyrazolo[3,4-b]pyrazin-6-yl)-4-methylpiperidin-4-amine]: 22 nM and 36 nM. As to `CC1(N)CCN(c2nc3[nH]nc(-c4cccc(Cl)c4Cl)c3nc2CF)CC1` [Example 15, 1-(3-(2,3-dichlorophenyl)-5-(fluoromethyl)-1H-pyrazolo[3,4-b]pyrazin-6-yl)-4-methylpiperidin-4-amine], the IC50 in experiment [1] was 1 nM; with KYSE-520 cells (setting [2]), 0.4 nM. Turning to `C[C@@H]1OCC2(CCN(c3nc4[nH]nc(-c5cccc(Cl)c5Cl)c4nc3CO)CC2)[C@@H]1N` [Example 16, (6-((3S,4S)-4-amino-3-methyl-2-oxa-8-azaspiro[4.5]decan-8-yl)-3-(2,3-dichlorophenyl)-1H-pyrazolo[3,4-b]pyrazin-5-yl)methanol], the IC50 in the experiment with KYSE-520 cells (setting [2]) worked out at 2 nM. `CCNc1nccc(-c2n[nH]c3nc(N4CCC5(CC4)CO[C@@H](C)[C@H]5N)c(CO)nc23)c1Cl` [Example 17, (6-((3S,4S)-4-amino-3-methyl-2-oxa-8-azaspiro[4.5]decan-8-yl)-3-(3-chloro-2-(ethylamino)pyridin-4-yl)-1H-pyrazolo[3,4-b]pyrazin-5-yl)methanol]: the half-inhibitory concentration (IC50) in the experiment with KYSE-520 cells (setting [2]) amounted to 9 nM. Turning to `CCNc1nccc(-c2n[nH]c3nc(N4CCC5(CC4)CO[C@@H](C)[C@H]5N)c(C)nc23)c1Cl` [Example 18, (3S,4S)-8-(3-(3-chloro-2-(ethylamino)pyridin-4-yl)-5-methyl-1H-pyrazolo[3,4-b]pyrazin-6-yl)-3-methyl-2-oxa-8-azaspiro[4.5]decan-4-amine 2,2,2-trifluoroacetate], the results for the IC50 (in experiment [1]; in the experiment on KYSE-520 cells (setting [3])) were 9 nM and 20 nM, respectively. As for `CCNc1nccc(-c2n[nH]c3nc(N4CCC5(CC4)CO[C@@H](C)[C@H]5N)c(Cl)nc23)c1Cl` [Example 19, (3S,4S)-8-(5-Chloro-3-(3-chloro-2-(ethylamino)pyridin-4-yl)-1H-pyrazolo[3,4-b]pyrazin-6-yl)-3-methyl-2-oxa-8-azaspiro[4.5]decan-4-amine], the results for the IC50 (in experiment [1]; with KYSE-520 cells (setting [2])) were 6 nM and 1 nM, respectively.

Consider `CNc1nccc(-c2n[nH]c3nc(N4CCC5(CC4)CO[C@@H](C)[C@H]5N)c(CO)nc23)c1Cl` [Example 20, (6-((3S,4S)-4-Amino-3-methyl-2-oxa-8-azaspiro[4.5]decan-8-yl)-3-(3-chloro-2-(methylamino)pyridin-4-yl)-1H-pyrazolo[3,4-b]pyrazin-5-yl)methanol], for which the IC50 is 3 nM in experiment [1] and 2 nM in the experiment with KYSE-520 cells (setting [2]).

On to `C[C@@H]1OCC2(CCN(c3nc4[nH]nc(-c5cccc(OC6COC6)c5Cl)c4nc3CO)CC2)[C@@H]1N` [Example 21, (6-((3S,4S)-4-amino-3-methyl-2-oxa-8-azaspiro[4.5]decan-8-yl)-3-(2-chloro-3-(oxetan-3-yloxy)phenyl)-1H-pyrazolo[3,4-b]pyrazin-5-yl)methanol], for which the IC50 was determined as 558 nM in experiment [1] and 2710 nM in the experiment on KYSE-520 cells (setting [2]). The matching figures for `C[C@@H]1OCC2(CCN(c3nc4[nH]nc(-c5ccnc(OC6COC6)c5Cl)c4nc3CO)CC2)[C@@H]1N` [Example 22, (6-((3S,4S)-4-amino-3-methyl-2-oxa-8-azaspiro[4.5]decan-8-yl)-3-(3-chloro-2-(oxetan-3-yloxy)pyridin-4-yl)-1H-pyrazolo[3,4-b]pyrazin-5-yl)methanol]: 48 nM and 3370 nM.
